Laboratory results published in ChEMBL document CHEMBL1143344, “Novel DNA-directed alkylating agents: design, synthesis and potent antitumor effect of phenyl N-mustard-9-anilinoacridine conjugates via a carbamate or carbonate linker” (Bioorg Med Chem, 2009).
The source made the active and inactive calls. The calls are words filed in the database; no cut-off is given here.

What was measured:
[1] = Cytotoxicity against human CL1-5 cells after 72 hrs by WST1 assay; format: functional, cell-based; conditions: CL1-5, 72 h
Mus musculus = experiment: Toxicity in athymic nude mouse xenografted with human HCT116 cells assessed as body weight loss at 50 mg/kg, iv administered q2d for 7 days; format: organism-based, HCT-116; set-up: dose 50 mg/kg, route intravenous; conditions: in vivo, 168 h
HCT-116 [2] = experiment: Antitumor activity against human HCT116 cells xenografted in athymic nude mouse assessed as tumor growth inhibition at 50 mg/kg, iv administered q2d for 7 days; format: functional; set-up: scale not given: the % may be the effect or the level left
MX1 [3] = experiment: Antitumor activity against human MX1 cells xenografted in athymic nude mouse assessed as no tumor relapse at 50 mg/kg, iv administered q2d for 5 days measured after 129 days; format: functional, organism-based; set-up: dose 50 mg/kg
H1299 [4] = experiment: Induction of DNA interstrand cross-linking in 20 Gy irradiated human H1299 cells at 200 uM after 1 hr by comet assay; format: cell-based
MX1 [5] = experiment: Cytotoxicity against human MX1 cells after 72 hrs by SRB assay; format: functional, cell-based; conditions: MX1, 72 h
[6] = Cytotoxicity against human CL1-0 cells after 72 hrs by WST1 assay; format: functional, cell-based; conditions: CL1-0, 72 h
H1299 [7] = experiment: Induction of DNA interstrand cross-linking in 20 Gy irradiated human H1299 cells after 1 hr by comet assay; format: cell-based
[8] = Stability in rat plasma assessed as half life at 5 ug/ml after 10 mins by HPLC; format: ADME, cell-free
CCRF-CEM [9] = experiment: Ratio of IC50 for taxol-resistant human CCRF-CEM cells to IC50 for human CCRF-CEM cells; format: functional
MCF7 = experiment: Cytotoxicity against human MCF7 cells after 72 hrs by WST1 assay; format: functional, cell-based; conditions: MCF7, 72 h
CCRF-CEM [10] = experiment: Cytotoxicity against human CCRF-CEM cells after 72 hrs by XTT assay; format: functional, cell-based
PC-3 = experiment: Cytotoxicity against human PC3 cells after 72 hrs by WST1 assay; format: functional, cell-based; conditions: PC-3, 72 h
CCRF-CEM [11] = experiment: Cytotoxicity against vinblastine-resistant human CCRF-CEM cells after 72 hrs by XTT assay; format: functional, cell-based
H1299 [12] = experiment: Induction of DNA interstrand cross-linking in 20 Gy irradiated human H1299 cells at 10 uM after 1 hr by comet assay; format: cell-based
HCT-116 [13] = experiment: Cytotoxicity against human HCT116 cells after 72 hrs by SRB assay; format: functional, cell-based; conditions: HCT-116, 72 h
CCRF-CEM [14] = experiment: Ratio of IC50 for vinblastine-resistant human CCRF-CEM cells to IC50 for human CCRF-CEM cells; format: functional
MX1 [15] = experiment: Antitumor activity against human MX1 cells xenografted in athymic nude mouse assessed as total tumor remission at 50 mg/kg, iv administered q2d for 5 days measured after 20 days; format: functional, organism-based; set-up: dose 50 mg/kg
CCRF-CEM [16] = experiment: Cytotoxicity against taxol-resistant human CCRF-CEM cells after 72 hrs by XTT assay; format: functional, cell-based
[17] = Cytotoxicity against human H1299 cells after 72 hrs by WST1 assay; format: functional, cell-based; conditions: NCI-H1299, 72 h
H1299 [18] = experiment: Induction of DNA interstrand cross-linking in 20 Gy irradiated human H1299 cells assessed as decrease in DNA migration after 1 hr by comet assay; format: cell-based
MX1 [19] = experiment: Antitumor activity against human MX1 cells xenografted in athymic nude mouse assessed as total tumor remission at 50 mg/kg, iv administered q2d for 5 days measured after 12 days; format: functional, organism-based; set-up: dose 50 mg/kg
MX1 [20] = experiment: Antitumor activity against human MX1 cells xenografted in athymic nude mouse assessed as total tumor remission at 100 mg/kg, iv administered qd for 6 days measured after 22 days; format: functional, organism-based; set-up: dose 100 mg/kg
MX1 [21] = experiment: Antitumor activity against human MX1 cells xenografted in athymic nude mouse assessed as no tumor relapse at 100 mg/kg, iv administered qd for 6 days measured after 59 days; format: functional, organism-based; set-up: dose 100 mg/kg
MX1 [22] = experiment: Antitumor activity against human MX1 cells xenografted in athymic nude mouse assessed as total tumor remission at 100 mg/kg, iv administered qd for 6 days measured after 20 days; format: functional, organism-based; set-up: dose 100 mg/kg
MX1 [23] = experiment: Antitumor activity against human MX1 cells xenografted in athymic nude mouse assessed as total tumor remission at 50 mg/kg, iv administered q2d for 9 days measured after 29 days; format: functional, organism-based; set-up: dose 50 mg/kg
MX1 [24] = experiment: Antitumor activity against human MX1 cells xenografted in athymic nude mouse assessed as total tumor remission at 50 mg/kg, iv administered q2d for 9 days measured after 31 days; format: functional, organism-based; set-up: dose 50 mg/kg
MX1 [25] = experiment: Antitumor activity against human MX1 cells xenografted in athymic nude mouse assessed as total tumor remission at 50 mg/kg, iv administered q2d for 9 days measured after 33 days; format: functional, organism-based; set-up: dose 50 mg/kg
MX1 [26] = experiment: Antitumor activity against human MX1 cells xenografted in athymic nude mouse assessed as total tumor remission at 50 mg/kg, iv administered q2d for 9 days measured after 35 days; format: functional, organism-based; set-up: dose 50 mg/kg
MX1 [27] = experiment: Antitumor activity against human MX1 cells xenografted in athymic nude mouse assessed as total tumor remission at 10 mg/kg, iv administered q2d for 3 days measured after 16 days; format: functional, organism-based; set-up: dose 10 mg/kg
MX1 [28] = experiment: Antitumor activity against human MX1 cells xenografted in athymic nude mouse assessed as total tumor remission at 10 mg/kg, iv administered q2d for 3 days measured after 20 days; format: functional, organism-based; set-up: dose 10 mg/kg
MX1 [29] = experiment: Antitumor activity against human MX1 cells xenografted in athymic nude mouse assessed as total tumor remission at 10 mg/kg, iv administered q2d for 3 days measured after 18 days; format: functional, organism-based; set-up: dose 10 mg/kg

Structure (SMILES)	IC50 [1] [nM]	IC50 (MX1 [5]) [nM]	IC50 [6] [nM]	Ratio IC50 (CCRF-CEM [9])	IC50 (MCF7) [nM]	IC50 (CCRF-CEM [10]; read-out: IC50) [nM]	IC50 (PC-3) [nM]	IC50 (CCRF-CEM [11]) [nM]	IC50 (HCT-116 [13]) [nM]	Ratio IC50 (CCRF-CEM [14])	IC50 (CCRF-CEM [16]) [nM]	IC50 [17] [nM]	also measured
O=C(Nc1cc(CO)cc(Nc2c3ccccc3nc3ccccc23)c1)Oc1ccc(N(CCCl)CCCl)cc1	5060	99	2700	1.9	4800	75	1610	184	568	2.5	140	284	Activity (Mus musculus): 8%; Activity (HCT-116 [2]): 98%; Activity (MX1 [3]): Active; Activity (H1299 [4]): 39.7%; Activity (H1299 [7]): Dose-dependent effect; half-life at 5 ug/ml [8]: 6.41 h; Activity (H1299 [12]): 74.2%; Activity (MX1 [15]): Active; Activity (H1299 [18]): Dose-dependent effect; Activity (MX1 [19]): Active
OCc1cc(Nc2c3ccccc3nc3ccccc23)cc(OCCN(CCCl)CCCl)c1		3.5		1.1				34		4.9	7.5		
Cc1cccc2c(Nc3cc(COC(=O)Nc4ccc(N(CCCl)CCCl)cc4)cc(NC(=O)OC(C)(C)C)c3)c3ccccc3nc12		5930		4.5		750		1420	2400	1.9	3360		
CC(=O)O[C@H]1C(=O)[C@@]2(C)[C@H]([C@H](OC(=O)c3ccccc3)[C@]3(O)C[C@H](OC(=O)[C@H](O)[C@@H](NC(=O)c4ccccc4)c4ccccc4)C(C)=C1C3(C)C)[C@]1(OC(C)=O)CO[C@@H]1C[C@@H]2O [PACLITAXEL]		46		330				1270	1.1	980	429		IC50 (CCRF-CEM [10]): 3.1 nM
Cc1c(NC(=O)Oc2ccc(N(CCCl)CCCl)cc2)cccc1Nc1c2ccccc2nc2c(C)cccc12		181		1.09		160		142	320	0.89	174		
COc1cc(NC(=O)Oc2ccc(N(CCCl)CCCl)cc2)cc(Nc2c3ccccc3nc3ccccc23)c1		340		1.5		200		108	1710	0.54	309		Activity (MX1 [20]): Active; Activity (MX1 [21]): Active; Activity (MX1 [22]): Active
Cc1ccc(Nc2c3ccccc3nc3ccccc23)cc1NC(=O)Oc1ccc(N(CCCl)CCCl)cc1		214		2.8		76		158	434	2.1	216		
Cc1ccc(NC(=O)Oc2ccc(N(CCCl)CCCl)cc2)cc1Nc1c2ccccc2nc2c(C)cccc12	10600	163	4660	1.05	5710	132	4470	93	263	0.7	138	623	
Cc1ccc(Nc2c3ccccc3nc3c(C)cccc23)cc1NC(=O)Oc1ccc(N(CCCl)CCCl)cc1		286		1.3		132		157	607	1.2	169		Activity (Mus musculus): 8%; Activity (HCT-116 [2]): 89%; Activity (MX1 [23]): Active; Activity (MX1 [24]): Active; Activity (MX1 [25]): Active; Activity (MX1 [26]): Active
CCOC(=O)Nc1cc(COC(=O)Oc2ccc(N(CCCl)CCCl)cc2)cc(Nc2c3ccccc3nc3ccccc23)c1	4560	89	410	1.6	19800	315	23300	482	639	1.5	509	527	Activity (MX1 [27]): Active; Activity (MX1 [28]): Active; Activity (MX1 [29]): Active
